The test has as its target T1, human capsaicin receptor (Homo sapiens, UniProt Q8NER1).
T1 construct: pBK-CMV expression construct encoding the full length human capsaicin receptor; expressed in transfected cells
Put plainly: Calcium mobilization assay, determination of antagonist activity (Example 6). The following applies: Table II. The format is cell-based. The gist of the method: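 HEK293 clonal lines stably expressing full-length human capsaicin receptor, loaded with Fluo-3 AM in KRH buffer pH 7.4, 1–2 h at 37 °C. Compounds (1–5 μM final) preincubated 0.5–6 h at room temperature, then capsaicin at its EC50 added. FLIPR/Fluoroskan calcium signal; IC50 as 50% decrease of capsaicin response.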
A general note: A change in cytosolic calcium serves as a functional read-out for many receptors and channels.

Setting [1] is: IC50 determined as described in Example 6.
Where [2] appears, read: determined as described in Example 6 (calcium mobilization, antagonist activity).

For 23 compounds, IC50 results are on record in patent publication US7566712B2, “Biaryl piperazinyl-pyridine analogues” (Neurogen Corporation, priority 2003, dated 2009).

T1 sequence (Q8NER1 whole entry): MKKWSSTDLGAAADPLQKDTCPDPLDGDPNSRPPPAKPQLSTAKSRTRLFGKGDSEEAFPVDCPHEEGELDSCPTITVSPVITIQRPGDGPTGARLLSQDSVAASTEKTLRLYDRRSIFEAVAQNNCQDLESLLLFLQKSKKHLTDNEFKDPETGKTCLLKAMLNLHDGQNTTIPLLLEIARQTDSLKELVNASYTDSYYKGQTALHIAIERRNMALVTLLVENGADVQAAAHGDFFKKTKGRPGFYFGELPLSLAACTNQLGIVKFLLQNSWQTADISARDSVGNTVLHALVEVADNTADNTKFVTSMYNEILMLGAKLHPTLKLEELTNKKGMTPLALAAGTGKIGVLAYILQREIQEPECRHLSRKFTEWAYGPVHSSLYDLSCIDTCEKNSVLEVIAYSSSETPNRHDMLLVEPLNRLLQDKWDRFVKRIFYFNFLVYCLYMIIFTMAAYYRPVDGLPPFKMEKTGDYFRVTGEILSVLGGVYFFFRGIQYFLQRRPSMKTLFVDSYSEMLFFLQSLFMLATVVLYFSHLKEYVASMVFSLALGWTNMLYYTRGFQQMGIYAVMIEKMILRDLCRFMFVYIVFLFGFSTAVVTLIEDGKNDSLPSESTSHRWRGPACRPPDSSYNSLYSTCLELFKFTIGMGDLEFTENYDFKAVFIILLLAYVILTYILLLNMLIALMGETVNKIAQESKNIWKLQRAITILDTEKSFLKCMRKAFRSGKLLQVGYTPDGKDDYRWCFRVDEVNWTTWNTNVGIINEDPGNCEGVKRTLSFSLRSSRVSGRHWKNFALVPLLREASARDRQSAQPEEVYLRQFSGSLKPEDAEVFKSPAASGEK

For the compound `NC1CCN(c2nc(-c3ccc(F)c(Cl)c3)cc(N3CCN(c4ncccc4C(F)(F)F)CC3)n2)C1` (centres unmarked) [Example 568, 1-(4-(3-chloro-4-fluorophenyl)-6-{4-[3-(trifluoromethyl)pyridin-2-yl]piperazin-1-yl}pyrimidin-2-yl)pyrrolidin-3-amine], the concentration for half-maximal inhibition (IC50) – broadly, the midpoint of a concentration-inhibition curve – under setting [1] was not above 1000 nM.

As to `NC1CCN(c2nc(-c3ccc(F)c(Cl)c3)cc(N3CCN(c4ncccc4C(F)(F)F)CC3)n2)CC1` [Example 569, 1-(4-(3-chloro-4-fluorophenyl)-6-{4-[3-(trifluoromethyl)pyridin-2-yl]piperazin-1-yl}pyrimidin-2-yl)piperidin-4-amine], the IC50 under setting [1] was not above 1000 nM.

Regarding `CC(=O)NC1CCN(c2nc(-c3ccc(F)c(Cl)c3)cc(N3CCN(c4ncccc4C(F)(F)F)CC3)n2)C1` (centres unmarked) [Example 570, N-[1-(4-(3-chloro-4-fluorophenyl)-6-{4-[3-(trifluoromethyl)pyridin-2-yl]piperazin-1-yl}pyrimidin-2-yl)pyrrolidin-3-yl]acetamide], the IC50 under setting [1] is not above 1000 nM.

Turning to `CC(=O)NC1CCN(c2nc(-c3ccc(F)c(Cl)c3)cc(N3CCN(c4ncccc4C(F)(F)F)CC3)n2)CC1` [Example 571, N-[1-(4-(3-chloro-4-fluorophenyl)-6-{4-[3-(trifluoromethyl)pyridin-2-yl]piperazin-1-yl}pyrimidin-2-yl)piperidin-4-yl]acetamide], the IC50 under setting [1] is not above 1000 nM.

In the case of `CS(=O)(=O)N1CCN(c2nc(-c3ccc(F)c(Cl)c3)cc(N3CCN(c4ncccc4C(F)(F)F)CC3)n2)CC1` [Example 572, 4-(3-chloro-4-fluorophenyl)-2-[4-(methylsulfonyl)piperazin-1-yl]-6-{4-[3-(trifluoromethyl)pyridin-2-yl]piperazin-1-yl)pyrimidine], the IC50 under setting [2] was not above 1000 nM.

Consider `CCN(CC)c1nc(-c2ccc(F)c(Cl)c2)cc(N2CCN(c3ncccc3C(F)(F)F)CC2)n1` [Example 573, 4-(3-chloro-4-fluorophenyl)-N,N-diethyl-6-{4-[3-(trifluoromethyl)pyridin-2-yl]piperazin-1-yl}pyrimidin-2-amine], for which the IC50 under setting [2] was not above 1000 nM.

Take `FC(F)(F)c1cccnc1N1CCN(c2cc(-c3ccccc3)nc(N3CCOCC3)n2)CC1` [Example 574, 4-(4-phenyl-6-{4-[3-(trifluoromethyl)pyridin-2-yl]piperazin-1-yl}pyrimidin-2-yl)morpholine]: the IC50 under setting [2] was not above 1000 nM.

As for `Cc1cc(-c2cc(N3CCN(c4ncccc4C(F)(F)F)CC3)nc(N3CCOCC3)n2)ccn1` [Example 575, 4-(4-(2-methylpyridin-4-yl)-6-{4-[3-(trifluoromethyl)pyridin-2-yl]piperazin-1-yl}pyrimidin-2-yl)morpholine], the IC50 under setting [2] is not above 1000 nM.

With `Cc1cc(-c2cc(N3CCN(c4ncccc4C(F)(F)F)CC3)nc(N3CCOCC3)n2)ccc1F` [Example 576, 4-(4-(4-fluoro-3-methylphenyl)-6-{4-[3-(trifluoromethyl)pyridin-2-yl]piperazin-1-yl}pyrimidin-2-yl)morpholifle], under setting [2], the IC50 is not above 1000 nM.

Take `CCOc1cc(-c2cc(N3CCN(c4ncccc4C(F)(F)F)CC3)nc(N3CCOCC3)n2)ccn1` [Example 577, 4-(4-(2-ethoxypyridin-4-yl)-6-{4-[3-(trifluoromethyl)pyridin-2-yl]piperazin-1-yl}pyrimidin-2-yl)morpholine]: the IC50 under setting [2] is not above 1000 nM.

In the case of `CN(c1nc(-c2ccc(F)c(Cl)c2)cc(N2CCN(c3ncccc3C(F)(F)F)CC2)n1)C1CCCCC1` [Example 578, 4-(3-chloro-4-fluorophenyl)-N-cyclohexyl-N-methyt-6-{4-[3-(trifluoromethyl)pyridin-2-yl]piperazin-1-yl}pyrimidin-2-amine], the IC50 under setting [2] is not above 1000 nM.

In the case of `CC(C)Nc1nc(-c2ccc(F)c(Cl)c2)cc(N2CCN(c3ncccc3C(F)(F)F)CC2)n1` [Example 580, 4-(3-chloro-4-fluorophenyl)-N-isopropyl-6-{4-[3-(trifluoromethyl)pyridin-2-yl]piperazin-1-yl}pyrimidin-2-amine], under setting [2], the IC50 is not above 1000 nM.

For the compound `O=C1NCC2(CCN(c3nc(-c4ccc(F)c(Cl)c4)cc(N4CCN(c5ncccc5C(F)(F)F)CC4)n3)CC2)O1` [Example 581, 8-(4-(3-chloro-4-fluorophenyl)-6-{4-[3-(trifluoromethyl)pyridin-2-yl]piperazin-1-yl}pyrimidin-2-yl)-1-oxa-3,8-diazaspiro[4.5]decan-2-one], the IC50 under setting [2] was not above 1000 nM.

On to `Fc1ccc(-c2cc(N3CCN(c4ncccc4C(F)(F)F)CC3)nc(OCc3ccccc3C(F)(F)F)n2)cc1F` [Example 582, 4-(3,4-difluorophenyl)-2-{[2-(trifluoromethyl)benzyl]oxy}-6-{4-[3-(trifluoromethyl)pyridin-2-yl]piperazin-1-yl}pyrimidine], for which the IC50 under setting [2] is not above 1000 nM.

As for `N#Cc1cccnc1N1CCN(c2cc(-c3ccc(F)c(Cl)c3)nc(N3CCOCC3)n2)CC1` [Example 583, 2-{4-[6-(3-chloro-4-fluorophenyl)-2-morpholin-4-ylpyrimidin-4-yl]piperazin-1-yl}nicotinonitrile], the IC50 under setting [2] was not above 1000 nM.

Turning to `Nc1nc(-c2ccc(F)c(Cl)c2)cc(N2CCN(c3ncccc3C(F)(F)F)CC2)n1` [Example 584, 4-(3-chloro-4-fluorophenyl)-6-{4-[3-(trifluoromethyl)pyridin-2-yl]piperazin-1-yl}pyrimidin-2-amine], the IC50 under setting [2] is not above 1000 nM.

For `Cc1cccnc1N1CCN(c2cc(-c3ccc(F)c(Cl)c3)nc(N3CCOCC3)n2)CC1` [Example 585, 4-{4-(3-chloro-4-fluorophenyl)-6-[4-(3-methylpyridin-2-yl)piperazin-1-yl]pyrimidin-2-yl}morpholine], the IC50 under setting [2] was not above 1000 nM.

`COc1cccnc1N1CCN(c2cc(-c3ccc(F)c(Cl)c3)nc(N3CCOCC3)n2)CC1` [Example 586, 4-{4-(3-chloro-4-fluorophenyl)-6-[4-(3-methoxypyridin-2-yl)piperazan-1-yl]pyrimidin-2-yl}morpholine]: the IC50 under setting [2] is not above 1000 nM.

As to `Nc1cccnc1N1CCN(c2cc(-c3ccc(F)c(Cl)c3)nc(N3CCOCC3)n2)CC1` [Example 587, 2-{4-[6-(3-chloro-4-fluorophenyl)-2-morpholin-4-ylpyrimidin-4-yl]piperazin-1-yl}pyridin-3-amine], the IC50 under setting [2] is not above 1000 nM.

`CS(=O)(=O)Nc1cccnc1N1CCN(c2cc(-c3ccc(F)c(Cl)c3)nc(N3CCOCC3)n2)CC1` [Example 588, N-(2-{4-[6-(3-chloro-4-fluorophenyl)-2-morpholin-4-ylpyrimidin-4-yl]piperazin-1-yl}pyridin-3-yl)methanesulfonamide]: the IC50 under setting [2] was not above 1000 nM.

Consider `Nc1cccc(-c2cc(N3CCN(c4ncccc4C(F)(F)F)CC3)nc(N3CCOCC3)n2)c1` [Example 589, 3-(2-morpholin-4-yl-6-{4-[3-(trifluoromethyl)pyridin-2-yl]piperazin-1-yl}pyrimidin-4-yl)phenylamine], for which, under setting [2], the IC50 is not above 1000 nM.

Consider `Cc1cc(-c2cc(N3CCN(c4ncccc4C(F)(F)F)CC3)nc(N3CCOCC3)n2)cc(C)n1` [Example 590, 4-(4-(2,6-dimethylpyridin-4-yl)-6-{4-[3-(trifluoromethyl)pyridin-2-yl]piperazin-1-yl}pyrimidin-2-yl)morpholine], for which the IC50 under setting [2] was not above 1000 nM.

With `CCN(CC)c1nc(-c2cc(C)nc(C)c2)cc(N2CCN(c3ncccc3C(F)(F)F)CC2)n1` [Example 591, 4-(2,6-dimethylpyridin-4-yl)-N,N-diethyl-6-{4-[3-(trifluoromethyl)pyridin-2-yl]piperazin-1-yl}pyrimidin-2-amine], the IC50 under setting [2] was not above 1000 nM.
